Measurements taken from publication PMC9090415, “Discovery of small molecule inhibitors of Plasmodium falciparum apicoplast DNA polymerase” (Journal of Enzyme Inhibition and Medicinal Chemistry, 2022).

Molecular target: P. falciparum apicoplast DNA polymerase (Pf-apPOL) (Plasmodium falciparum, UniProt Q8ILY1)
Assay: Fluorescence-based high-throughput DNA polymerase assay (molecular beacon), primary screen and dose-response
Format: biochemical
Conditions: for DNA Pol: unit not given, 90 min, 10 µM
Procedure: The HT assay employs a molecular beacon, a stem-loop DNA template with a Cy3 dye and the Black Hole Quencher on the 3′ and 5′ ends of the DNA, respectively. Pf-apPOL concentration is based on a calculated absorptivity of ε280 = 56750 M^−1 cm^−1. Reactions were carried out at 25 °C, using Corning 3575 […] (well-volume, 20 µL). Assays testing for compound inhibition composed of reaction buffer (pH 7.9 in 50 mM potassium acetate, 20 mM Tris-acetate and 10 mM magnesium acetate), Pf-apPOL (20 nM), DNA substrate (20 nM), dNTPs (6 µM), and compound (10 µM in DMSO). The DNA and nucleotide substrates (dNTPs) were at concentrations of 20 nM and 6 µM, respectively, in the assay. Pf-apPOL was incubated in the reaction buffer with dNTPs and the compound of interest (10 µM, in the assay) at 25 °C for 10 min. The DNA substrate was then added and the reaction was allowed to proceed for 90 min at 25 °C.
Each assay plate contained 16 negative controls (no Pf-apPOL, DMSO present) and 16 positive controls (Pf-apPOL present, no DMSO). The fluorescence of each well was determined using a BioTek Synergy Neo fluorescence plate reader using excitation and emission wavelengths of 555 and 570 nm, respectively.
In the above, Min is the average of fluorescence emission of the negative controls (substrate only), Max the average fluorescence emission from the positive controls (enzyme + substrate), and Test the emission from the assays in the presence of compounds (enzyme + compound + substrates). […] […] The IC50 of each compound was determined using Equation (2): (2) IC50= Vmax/(1+ (I/IC50)^n)
In the above, n measures cooperativity, with n > 1 indicating synergistic binding of more than a single molecule of the compound.
To identify apPOL inhibitors we utilised our previously developed high-throughput DNA polymerase assay. The HT assay is based on a molecular beacon DNA template that forms a stem-loop with a Cy3 dye and the Black Hole Quencher on the 3′ and 5′ ends of the DNA, respectively. DNA polymerase activity extends an annealed primer through the stem region, displacing the fluorophore from the quencher, thereby increasing its fluorescence (Figure 1(A)). The assay accurately recapitulates the kinetic behaviour of apPOL, as measured through more conventional low-throughput gel-based assays. The Z′ factor for the assay described here was 0.9 across all plates (data not shown).
Figure 1. High-throughput screening. (A) The fluorescent-based DNA polymerase assay used to screen the compound libraries. The DNA template strand is a hairpin loop with a primer annealed to the loop. The 3’ end of the primer is 11 bases away from the 6 bp duplex. Strand displacement activity of the DNA polymerase separates the Cy3 dye from the Black hole quencher leading to an increase in fluorescent signal. (B) The high-throughput assay workflow. The DNA polymerase is incubated with […] compound for 10 min prior to addition of the hairpin substrate. The reaction is quenched at 3 different time points and the fluorescent signal is measured and % inhibition is determined using the provided equation.

P. falciparum apicoplast DNA polymerase (Pf-apPOL), sequence (Q8ILY1 entry or part of it): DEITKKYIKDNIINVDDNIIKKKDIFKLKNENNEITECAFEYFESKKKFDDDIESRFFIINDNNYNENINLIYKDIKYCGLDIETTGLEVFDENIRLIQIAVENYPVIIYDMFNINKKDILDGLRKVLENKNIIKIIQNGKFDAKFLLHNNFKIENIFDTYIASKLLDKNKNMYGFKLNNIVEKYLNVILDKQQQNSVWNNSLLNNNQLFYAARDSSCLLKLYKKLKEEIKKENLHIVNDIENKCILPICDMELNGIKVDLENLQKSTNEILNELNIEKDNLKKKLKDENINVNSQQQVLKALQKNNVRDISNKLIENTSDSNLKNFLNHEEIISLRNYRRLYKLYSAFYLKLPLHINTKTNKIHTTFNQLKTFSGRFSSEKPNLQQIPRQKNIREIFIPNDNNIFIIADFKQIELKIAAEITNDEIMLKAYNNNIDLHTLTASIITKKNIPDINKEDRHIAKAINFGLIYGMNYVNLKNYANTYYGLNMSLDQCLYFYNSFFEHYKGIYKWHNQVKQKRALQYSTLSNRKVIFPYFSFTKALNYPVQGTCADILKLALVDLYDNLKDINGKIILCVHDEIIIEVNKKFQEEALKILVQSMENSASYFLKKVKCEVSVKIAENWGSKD

O=C(O)c1ccc(-c2nc3cc(-c4ccc5nc(-c6ccc(C(=O)O)cc6)[nH]c5c4)ccc3[nH]2)cc1 [Molecule 1, OC(=O)c1ccc(cc1)c1nc2c([nH]1)cc(cc2)c1ccc2c(c1)nc([nH]2)c1ccc(cc1)C(=O)O]
% inhibition Apo pol 10' (DRC-1, concentration 2.5): 4.605% | % inhibition Apo pol 10' (DRC-1, concentration 5): 47.5072% | % inhibition Apo pol 10' (DRC-1, concentration 10): 71.1755% | % inhibition Apo pol 10' (DRC-1, concentration 20): 72.8856% | % inhibition Apo pol 10' (DRC-1, concentration 40): 63.5867% | % inhibition Apo pol 10' (DRC-1, concentration 80): 67.7005% | % inhibition Apol 90' (DRC-1, 90', concentration 2.5): 3.724% | % inhibition Apol 90' (DRC-1, 90', concentration 5): 40.2973% | % inhibition Apol 90' (DRC-1, 90', concentration 10): 67.3465% | % inhibition Apol 90' (DRC-1, 90', concentration 20): 73.5196% | % inhibition Apol 90' (DRC-1, 90', concentration 40): 66.9827% | % inhibition Apol 90' (DRC-1, 90', concentration 80): 77.5146% | % inhibition apPOL 180' (DRC-1, 180', concentration 2.5): 2.544% | % inhibition apPOL 180' (DRC-1, 180', concentration 5): 30.2265% | % inhibition apPOL 180' (DRC-1, 180', concentration 10): 61.3297% | % inhibition apPOL 180' (DRC-1, 180', concentration 20): 73.7422% | % inhibition apPOL 180' (DRC-1, 180', concentration 40): 70.4852% | % inhibition apPOL 180' (DRC-1, 180', concentration 80): 81.7521% | % inhibition Apo pol 5' (DRC-2, 5', concentration 2.5 (unit not given)): 30% | % inhibition Apo pol 5' (DRC-2, 5', concentration 20 (unit not given)): 37% | % inhibition Apo pol 5' (DRC-2, 5', concentration 40 (unit not given)): 37% | % inhibition Apol 40' (DRC-2, 40', concentration 2.5 (unit not given)): 30% | % inhibition Apol 40' (DRC-2, 40', concentration 10 (unit not given)): 32% | % inhibition Apol 40' (DRC-2, 40', concentration 20 (unit not given)): 41% | % inhibition Apol 40' (DRC-2, 40', concentration 80 (unit not given)): 32% | % inhibition ApPOL 90' (DRC-2, 90', concentration 80 (unit not given)): 41% | % inhibition apPOL 180' (DRC-2, 180', concentration 20 (unit not given)): 37% | % inhibition Apo pol 5' (DRC-2, 5', concentration 2.5): 30% | % inhibition Apo pol 5' (DRC-2, 5', concentration 5): 7% | % inhibition Apo pol 5' (DRC-2, 5', concentration 10): 33% | % inhibition Apo pol 5' (DRC-2, 5', concentration 20): 37% | % inhibition Apo pol 5' (DRC-2, 5', concentration 40): 37% | % inhibition Apo pol 5' (DRC-2, 5', concentration 80): 22% | % inhibition Apol 40' (DRC-2, 40', concentration 2.5): 30% | % inhibition Apol 40' (DRC-2, 40', concentration 5): 4% | % inhibition Apol 40' (DRC-2, 40', concentration 10): 32% | % inhibition Apol 40' (DRC-2, 40', concentration 20): 41% | % inhibition Apol 40' (DRC-2, 40', concentration 40): 48% | % inhibition Apol 40' (DRC-2, 40', concentration 80): 32% | % inhibition ApPOL 90' (DRC-2, 90', concentration 2.5): 25% | % inhibition ApPOL 90' (DRC-2, 90', concentration 5): 1.89% | % inhibition ApPOL 90' (DRC-2, 90', concentration 10): 28% | % inhibition ApPOL 90' (DRC-2, 90', concentration 20): 40% | % inhibition ApPOL 90' (DRC-2, 90', concentration 40): 53% | % inhibition ApPOL 90' (DRC-2, 90', concentration 80): 41% | % inhibition apPOL 180' (DRC-2, 180', concentration 2.5): 14% | % inhibition apPOL 180' (DRC-2, 180', concentration 5): -1.88% | % inhibition apPOL 180' (DRC-2, 180', concentration 10): 20% | % inhibition apPOL 180' (DRC-2, 180', concentration 20): 37% | % inhibition apPOL 180' (DRC-2, 180', concentration 40): 56% | % inhibition apPOL 180' (DRC-2, 180', concentration 80): 49% | DNA Pol (primary screen value of the 186 hits): 68 | DNA Pol (primary screen value, head "DNA Pol"): 68

CC(C)(C)c1cc(C(=O)C(C#N)=NNc2cccc(Cl)c2)no1 [Molecule 98, N#CC(=NNc1cccc(c1)Cl)C(=O)c1noc(c1)C(C)(C)C]
DNA Pol ('DNA Pol' of the 186 hits list (primary screen result)): 96 | % inhibition Apo pol 10' (DRC-1, concentration 2.5): 10.7073% | % inhibition Apo pol 10' (DRC-1, concentration 5): 31.7551% | % inhibition Apo pol 10' (DRC-1, concentration 10): 51.803% | % inhibition Apo pol 10' (DRC-1, concentration 20): 87.204% | % inhibition Apo pol 10' (DRC-1, concentration 40): 82.704% | % inhibition Apo pol 10' (DRC-1, concentration 80): 96.4114% | % inhibition Apol 90' (DRC-1, 90', concentration 2.5): 12.918% | % inhibition Apol 90' (DRC-1, 90', concentration 5): 31.5705% | % inhibition Apol 90' (DRC-1, 90', concentration 10): 54.1185% | % inhibition Apol 90' (DRC-1, 90', concentration 20): 87.0322% | % inhibition Apol 90' (DRC-1, 90', concentration 40): 80.829% | % inhibition Apol 90' (DRC-1, 90', concentration 80): 96.7924% | % inhibition apPOL 180' (DRC-1, 180', concentration 2.5): 9.726% | % inhibition apPOL 180' (DRC-1, 180', concentration 5): 23.8574% | % inhibition apPOL 180' (DRC-1, 180', concentration 10): 46.8466% | % inhibition apPOL 180' (DRC-1, 180', concentration 20): 85.1856% | % inhibition apPOL 180' (DRC-1, 180', concentration 40): 79.4059% | % inhibition apPOL 180' (DRC-1, 180', concentration 80): 96.5379% | % inhibition ApPOL 90' (DRC-2, 90', concentration 20 (unit not given)): 61% | % inhibition Apo pol 5' (DRC-2, 5', concentration 2.5): 8% | % inhibition Apo pol 5' (DRC-2, 5', concentration 5): 18% | % inhibition Apo pol 5' (DRC-2, 5', concentration 10): 30% | % inhibition Apo pol 5' (DRC-2, 5', concentration 20): 47% | % inhibition Apo pol 5' (DRC-2, 5', concentration 40): 46% | % inhibition Apo pol 5' (DRC-2, 5', concentration 80): 61% | % inhibition Apo pol 5' (DRC-2, 5', concentration 80 (unit not given)): 61% | % inhibition Apol 40' (DRC-2, 40', concentration 2.5): 10% | % inhibition Apol 40' (DRC-2, 40', concentration 5): 24% | % inhibition Apol 40' (DRC-2, 40', concentration 10): 40% | % inhibition Apol 40' (DRC-2, 40', concentration 20): 60% | % inhibition Apol 40' (DRC-2, 40', concentration 40): 56% | % inhibition Apol 40' (DRC-2, 40', concentration 80): 76% | % inhibition ApPOL 90' (DRC-2, 90', concentration 2.5): 8.47% | % inhibition ApPOL 90' (DRC-2, 90', concentration 5): 21% | % inhibition ApPOL 90' (DRC-2, 90', concentration 10): 39% | % inhibition ApPOL 90' (DRC-2, 90', concentration 20): 61% | % inhibition ApPOL 90' (DRC-2, 90', concentration 40): 58% | % inhibition ApPOL 90' (DRC-2, 90', concentration 80): 79% | % inhibition apPOL 180' (DRC-2, 180', concentration 2.5): 2.49% | % inhibition apPOL 180' (DRC-2, 180', concentration 5): 14% | % inhibition apPOL 180' (DRC-2, 180', concentration 10): 31% | % inhibition apPOL 180' (DRC-2, 180', concentration 20): 57% | % inhibition apPOL 180' (DRC-2, 180', concentration 40): 55% | % inhibition apPOL 180' (DRC-2, 180', concentration 80): 81% | DNA Pol (primary screen value of the library well): 96
